Laboratory results published in publication PMC11609934, “Exploration and characterization of the antimalarial activity of cyclopropyl carboxamides that target the mitochondrial protein, cytochrome b” (European Journal of Medicinal Chemistry, 2024).
Values after ≈ are worked out from the molar mass of the structure shown.

Columns and labels:
Rat hepatocyte stability = assay type: in vitro ADME; conditions: pooled rat hepatocytes
Experimental: Rat Hepatocyte Stability. A solution of the test compound in Krebs-Henseliet buffer solution (1 μM) was incubated in pooled rat hepatocytes (1 × 10^6 cells/mL) for 0, 15,30,45, 60, 75 and 90 min at 37 °C (5 % CO2, 95 % relative humidity). The reaction was terminated with the addition of ice-cold acetonitrile containing system suitability standard at designated time points. […] The experiment was carried out in duplicate. Diltiazem, 7-ethoxy coumarin, propranolol, and midazolam were used as reference standards.

[1] = test system: P. falciparum 3D7 parasites; test: P. falciparum 3D7 asexual stage LDH assay (72 h); assay type: cell-based, Plasmodium falciparum; conditions: for EC50: Plasmodium falciparum, 3D7, 72 h, LDH activity of P. falciparum 3D7 parasites over 72 h, means and SDs, three or more experiments, read-out: Pf 3D7 EC50 (SD)
Experimental: To establish the SAR, synthesized analogs were assessed against the asexual stage parasite (72 h) using LDH as a proxy for parasite growth inhibition. Cytotoxicity was monitored against the human HepG2 cell line using Cell TitreGlo as a metabolic marker for cell growth.
P. falciparum 3D7 Asexual Stage LDH Assay. This is a platform assay is routinely undertaken at the Walter and Eliza Hall Institute and details on the protocol has been previously published. Briefly, 10-point dilution series of the compounds were prepared in 384 well assay plates using an Echo555 (Labcyte). Appropriate volumes of 10 mM compound stocks were transferred into the assay plates such that the starting concentration was 1 μM, with a 1 in 3-fold dilution series. All wells were backfilled with DMSO to 40 nL such that this remained constant (0.1 % DMSO). The positive growth control was 0.1 % DMSO and the negative growth control was 100 nM chloroquine. The parasite inoculum (40 μL) was dispensed into plates containing compounds using a Multidrop Combi dispenser (Thermo Scientific). […] Following 72 h growth, plates were sealed with parafilm and frozen at −80 °C overnight. Plates were thawed at room temperature for at least 4 h prior to LDH activity being measured. […] Plates were shaken to ensure mixing and absorbance at 650 nm was measured in an EnVision (PerkinElmer) plate reader after 30 min of incubation at room temperature. […] The equation used is sigmoidal dose response (variable slope), Y = bottom + (top − bottom)/(1 + 10((logEC50 − X) × Hill Slope)).

[2] = Aqueous solubility (kinetic in PBS, pH 7.4); assay type: physicochemical; conditions: phosphate buffered saline
Experimental: Solubility. The solubility assay was performed using a miniaturized shake flask method. A solution of phosphate buffered saline (PBS) and the test compound (200 μM) was incubated at 25 °C with constant shaking (600 rpm) for 2 h. The samples were filtered using a multiscreen solubility filter plate. The filtrate was half diluted in acetonitrile. A five-point linearity curve was prepared in PBS:acetonitrile (1:1, v/v) at 200, 150, 75, 25 and 2.5 μM. Blank, linearity and test samples (n = 2) were transferred to a UV readable plate and the plate was scanned for absorbance. Best fit calibration curves were constructed using the calibration standards and used to determine the test sample solubility. The experiment was carried out in duplicate. Diethylstilbestrol, haloperidol, and diclofenac sodium were used as reference standards.

[3] = Human liver microsome stability; assay type: in vitro ADME; conditions: pooled human liver microsomes
Experimental: Human Liver Microsome Stability. A solution of the test compounds in phosphate buffer solution (1 μM) was incubated in pooled human liver microsomes (0.5 mg/mL) for 0, 5, 20, 30, 45 and 60 min at 37 °C in the presence and absence of NADPH regeneration system. The reaction was terminated with the addition of ice-cold acetonitrile containing system suitability standard at designated time points. […] The experiment was carried out in duplicate. Verapamil, diltiazem, phenacetin, and imipramine were used as reference standards.

[4] = Human HepG2 growth inhibition assay (Cell TitreGlo, 48 h); assay type: cell-based; conditions: human, HepG2 cells, HepG2 cell growth inhibition over 48 h
Experimental: To establish the SAR, synthesized analogs were assessed against the asexual stage parasite (72 h) using LDH as a proxy for parasite growth inhibition. Cytotoxicity was monitored against the human HepG2 cell line using Cell TitreGlo as a metabolic marker for cell growth. Cyt b inhibitors typically have high lipophilicity, and so calculated physicochemical properties were determined, while in vitro ADME was also collected on representative analogs to gauge their suitability for efficacy studies in a 4-day P. berghei model.
Human HepG2 Growth Inhibition Assay. This is a routine assay undertaken at the Walter and Eliza Hall Institute and the method has been previously published. HepG2 cells were cultured in Dulbeccos modified eagles medium (DMEM) supplemented with 10 % fetal calf serum (FCS), in a humidified incubator at 37 °C and 5 % CO2. Assay plates (Greiner #781098, 384 well, white, tissue culture treated) were prepared by transferring appropriate volumes of 10 mM compound stocks using an Echo555 (Labcyte) such that the starting concentration was 50 μM, with a 1:2-fold dilution series. All wells were backfilled with DMSO to […] such that this remained constant (0.5 % DMSO). The positive growth control was 0.5 % DMSO and the negative growth control was 10 μM Bortezomib. HepG2 cells were seeded with 1000 cells in 50 μL DMEM with 10 % FCS into each well of the assay plates using a Multidrop Combi dispenser (Thermo Scientific). Plates were incubated at 37 °C and 5 % CO2 for 48 h. Cytotoxicity was determined using Cell Titer Glo (Promega) and calculated as a percentage using DMSO as the positive growth control and 10 μM Bortezomib as a negative growth control. EC50 values were calculated by Dotmatics 5.3 and Spotfire 7.11.1 software using a nonlinear regression four-parameter fit analysis. The equation used is sigmoidal dose response (variable slope), Y = bottom + (top − bottom)/(1 + 10((logEC50 − X) × Hill Slope)).

[5] = eLogD (shake-flask, pH 7.4); assay type: physicochemical; conditions: 1-octanol/phosphate buffered saline (1:1, v/v), Shake-flask method
Experimental: eLogD. The LogD (pH 7.4) assay was performed using a miniaturized shake flask method. A solution of a pre-saturated mixture of 1-octanol and phosphate buffered saline (PBS) (1:1, v/v) and the test compound (75 μM) was incubated at 25 °C with constant shaking (850 rpm) for 2 h. After incubation the organic and aqueous phases were separated, and samples of each phase transferred to plate for dilution. The organic phase was diluted to 1000-fold and the aqueous phase was diluted 20-fold. The samples were quantitated using LC-MS/MS. The experiment was carried out in duplicate. Propranolol, amitriptyline, and midazolam were used as reference standards.

Structure (SMILES) | hepatocyte CLint at 1 μM (Rat hepatocyte stability) [µL/min/1e6 cells] | EC50 [1] [nM] | solubility at 2 h [2] [µM] | microsomal CLint at 1 h, 1 µM [3] [µL/min/mg] | CC50 at 48 h [4] [nM] | logD at 2 h [5] | fold decrease in Pf 3D7 activity relative to 17 ([1]; ratio of EC50 to compound 17) [fold]
O=C(NC1CC1)c1ccc(CN(Cc2ccccc2)C2CC2)cc1 [Compound 17, 4-((Benzyl(cyclopropyl)amino)methyl)-N-cyclopropylbenzamide] | > 92 | 140 | 44 (≈ 14.1 µg/mL) | 72 | > 40000 | 4 | –
CC(C)N(Cc1ccccc1)Cc1ccc(C(=O)NC2CC2)cc1 [Compound 21, 4-((Benzyl(isopropyl)amino)methyl)-N-cyclopropylbenzamide] | > 92 | 160 | 140 (≈ 45.1 µg/mL) | 76 | > 40000 | 3.5 | –
O=C(NC1CC1)c1ccc(CN(Cc2ccccc2)C2CCC2)cc1 [Compound 22, 4-((Benzyl(cyclobutyl)amino)methyl)-N-cyclopropylbenzamide] | > 92 | 160 | 92 (≈ 30.8 µg/mL) | 151 | > 40000 | 3.8 | –
O=C(NC1CC1)c1ccc(CN(Cc2ccccc2)CC(F)(F)F)cc1 [Compound 25, 4-((Benzyl(2,2,2-trifluoroethyl)amino)methyl)-N-cyclopropylbenzamide] | > 92 | 260 | 11 (≈ 3.99 µg/mL) | 79 | > 40000 | 4.8 | –
CCCN(Cc1ccccc1)Cc1ccc(C(=O)NC2CC2)cc1 [Compound 26, 4-((Benzyl(propyl)amino)methyl)-N-cyclopropylbenzamide] | > 92 | 130 | 83 (≈ 26.8 µg/mL) | 98 | > 40000 | 3.7 | –
O=C(NC1CC1)c1ccc(CN(Cc2cc(Cl)cc(Cl)c2)C2CC2)cc1 [Compound 77] | – | 230 | – | – | > 40000 | – | –
O=C(NC1CC1)c1ccc(CN(Cc2c(Cl)cc(Cl)cc2Cl)C2CC2)cc1 [Compound 78, N-Cyclopropyl-4-((cyclopropyl(2,4,6-trichlorobenzyl)amino)methyl)benzamide] | – | 100 | – | – | > 40000 | – | –
Cc1ccc(CN(Cc2ccc(C(=O)NC3CC3)cc2)C2CC2)c(C)c1 [Compound 80, N-Cyclopropyl-4-((cyclopropyl(2,4-dimethylbenzyl)amino)methyl)benzamide] | – | 190 | – | – | > 40000 | – | –
Cc1cc(C)cc(CN(Cc2ccc(C(=O)NC3CC3)cc2)C2CC2)c1 [Compound 81] | – | 190 | – | – | > 40000 | – | –
Cc1cc(C)c(CN(Cc2ccc(C(=O)NC3CC3)cc2)C2CC2)c(C)c1 [Compound 82, N-Cyclopropyl-4-((cyclopropyl(2,4,6-trimethylbenzyl)amino)methyl)benzamide] | – | 80 | – | – | > 40000 | – | –
COc1cc(OC)c(CN(Cc2ccc(C(=O)NC3CC3)cc2)C2CC2)c(OC)c1 [Compound 83, N-Cyclopropyl-4-((cyclopropyl(2,4,6-trimethoxybenzyl)amino)methyl)benzamide] | – | 2500 | – | – | > 40000 | – | –
O=C(NC1CC1)c1ccc(CN(Cc2cc(C(F)(F)F)cc(C(F)(F)F)c2)C2CC2)cc1 [Compound 84, 4-(((3,5-Bis(trifluoromethyl)benzyl) (cyclopropyl)amino)methyl)-N-cyclopropylbenzamide] | – | 100 | – | – | 15000 | – | –
O=C(NC1CC1)c1ccc(CN(Cc2ccccn2)C2CC2)cc1 [Compound 85] | – | 6600 | – | – | > 40000 | – | –
O=C(NC1CC1)c1ccc(CN(Cc2ccncc2)C2CC2)cc1 [Compound 87] | – | 9200 | – | – | > 40000 | – | –
CCCN(Cc1ccc(C(=O)NC2CC2)cc1)C1CC1 [Compound 90, N-Cyclopropyl-4-((cyclopropyl(propyl)amino)methyl)benzamide] | – | 2500 | – | – | > 40000 | – | –
CC(C)N(Cc1ccc(C(=O)NC2CC2)cc1)C1CC1 [Compound 91, N-Cyclopropyl-4-((cyclopropyl(isopropyl)amino)methyl)benzamide] | – | 2600 | – | – | > 40000 | – | –
CC(C)(C)CN(Cc1ccc(C(=O)NC2CC2)cc1)C1CC1 [Compound 93] | – | 460 | – | – | > 40000 | – | –
O=C(NC1CC1)c1ccc(CN(CC2CCC2)C2CC2)cc1 [Compound 94] | – | 520 | – | – | > 40000 | – | –
O=C(NC1CC1)c1ccc(CN(CC2CCCC2)C2CC2)cc1 [Compound 95] | – | 510 | – | – | > 40000 | – | –
O=C(NC1CC1)c1ccc(CN(CC2CCCCC2)C2CC2)cc1 [Compound 96] | – | 240 | – | – | > 40000 | – | –
CC(c1ccc(C(=O)NC2CC2)cc1)N(Cc1ccccc1)C1CC1 (stereo not shown) [Compound 98, 4-(1-(Benzyl(cyclopropyl)amino)ethyl)-N-cyclopropylbenzamide] | – | 340 | – | – | > 40000 | – | 2
O=C(NC1CC1)c1ccc(CN(C2CC2)S(=O)(=O)c2ccccc2)cc1 [Compound 101] | – | 2300 | – | – | > 40000 | – | –
O=C(NC1CC1)c1ccc(S(=O)(=O)N(Cc2ccccc2)C2CC2)cc1 [Compound 102, 4-(N-Benzyl-N-cyclopropylsulfamoyl)-N-cyclopropylbenzamide] | – | 4800 | – | – | > 40000 | – | –
O=C(NC1CC1)c1ccc(CN(Cc2ccccc2)C2CC2)cn1 [Compound 103, 5-((Benzyl(cyclopropyl)amino)methyl)-N-cyclopropylpicolinamide] | – | 7600 | – | – | > 40000 | – | –
O=C(NC1CC1)c1ccc(CN(Cc2ccccc2)C2CC2)nc1 [Compound 104, 6-((Benzyl(cyclopropyl)amino)methyl)-N-cyclopropylnicotinamide] | – | 3500 | – | – | > 40000 | – | –
O=C(NC1CC1)c1cnc(CN(Cc2ccccc2)C2CC2)s1 [Compound 105, 2-((Benzyl(cyclopropyl)amino)methyl)-N-cyclopropylthiazole-5-carboxamide] | – | 2400 | – | – | > 40000 | – | –
